Assay results as given in ChEMBL document CHEMBL3994564 (Medchemcomm, 2016).
≈ marks a conversion by molar mass, not a printed value.

What was measured:
[1] = tested on: Escherichia coli; assay: Antibacterial activity against Escherichia coli ATCC 25922 after 24 hrs by MTT assay; type: functional; conditions: ATCC 25922, 24 h
[2] = tested on: Pseudomonas aeruginosa; assay: Antibacterial activity against Pseudomonas aeruginosa ATCC 27853 after 24 hrs by MTT assay; type: functional; conditions: ATCC 27853, 24 h
[3] = tested on: Staphylococcus aureus; assay: Antibacterial activity against Staphylococcus aureus ATCC 6538 after 24 hrs by MTT assay; type: functional; conditions: ATCC 6538, 24 h
[4] = tested on: Bacillus subtilis; assay: Antibacterial activity against Bacillus subtilis ATCC 530 after 24 hrs by MTT assay; type: functional; conditions: ATCC 530, 24 h
[5] = target: T1, Beta-ketoacyl-[acyl-carrier-protein] synthase III (Escherichia coli K-12, UniProt P0A6R0); assay: Inhibition of Escherichia coli FabH expressed in Escherichia coli DH10B using holo-ACP/acetyl-CoA as substrate assessed as incorporation of [3H] signal in final product preincubated with holo-ACP for 1 hr followed by acetyl-CoA addition measured after 25 mins by liquid scintillation counting method
T1 sequence (P0A6R0 whole entry): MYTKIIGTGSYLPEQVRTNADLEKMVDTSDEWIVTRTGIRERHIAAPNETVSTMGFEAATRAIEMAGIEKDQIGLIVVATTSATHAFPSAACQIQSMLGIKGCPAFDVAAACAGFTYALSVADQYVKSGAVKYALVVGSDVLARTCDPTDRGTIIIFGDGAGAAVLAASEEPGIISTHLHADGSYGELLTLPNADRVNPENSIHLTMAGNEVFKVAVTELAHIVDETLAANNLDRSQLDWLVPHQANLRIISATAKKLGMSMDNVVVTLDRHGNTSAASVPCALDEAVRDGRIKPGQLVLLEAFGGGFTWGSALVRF

[6] = tested on: NIH3T3; assay: Cytotoxic activity against mouse NIH/3T3 cells after 24 hrs by MTT assay; type: cell-based; conditions: NIH3T3, 24 h

Row | Structure (SMILES) | MIC [1] | MIC [2] | MIC [3] | MIC [4] | IC50 [5] | IC50 [6]
1 | O=C(N/N=C/c1ccc(O)c([N+](=O)[O-])c1)c1ccc2c(c1)OCCCO2 | 6.25 µg/mL (≈ 17.5 µM) | 12.5 µg/mL (≈ 35 µM) | 25 µg/mL (≈ 70 µM) | 12.5 µg/mL (≈ 35 µM) | 8.9 µM | 198 µM
2 | O=C(N/N=C/c1cc([N+](=O)[O-])ccc1Cl)c1ccc2c(c1)OCCCO2 | 3.13 µg/mL (≈ 8.33 µM) | 3.13 µg/mL (≈ 8.33 µM) | 3.13 µg/mL (≈ 8.33 µM) | 6.25 µg/mL (≈ 16.6 µM) | 3.9 µM | 172 µM
3 | COc1ccc(/C=N/NC(=O)c2ccc3c(c2)OCCCO3)cc1 | 25 µg/mL (≈ 76.6 µM) | 12.5 µg/mL (≈ 38.3 µM) | 25 µg/mL (≈ 76.6 µM) | 50 µg/mL (≈ 153 µM) | 24.1 µM | 132 µM
4 | O=C(N/N=C/c1cc([N+](=O)[O-])ccc1O)c1ccc2c(c1)OCCCO2 | 6.25 µg/mL (≈ 17.5 µM) | 3.13 µg/mL (≈ 8.76 µM) | 6.25 µg/mL (≈ 17.5 µM) | 3.13 µg/mL (≈ 8.76 µM) | 3.5 µM | 157 µM
5 | O=C(N/N=C/c1ccccc1Cl)c1ccc2c(c1)OCCCO2 | 25 µg/mL (≈ 75.6 µM) | 50 µg/mL (≈ 151 µM) | 50 µg/mL (≈ 151 µM) | > 100 µg/mL |  | 
6 | O=C(N/N=C/c1ccc(I)cc1)c1ccc2c(c1)OCCCO2 | 25 µg/mL (≈ 59.2 µM) | 25 µg/mL (≈ 59.2 µM) | 6.25 µg/mL (≈ 14.8 µM) | 12.5 µg/mL (≈ 29.6 µM) | 6.9 µM | 201 µM
7 | O=C(N/N=C/c1ccc(F)c([N+](=O)[O-])c1)c1ccc2c(c1)OCCCO2 | 12.5 µg/mL (≈ 34.8 µM) | 6.25 µg/mL (≈ 17.4 µM) | 6.25 µg/mL (≈ 17.4 µM) | 6.25 µg/mL (≈ 17.4 µM) | 5.1 µM | 131 µM
8 | O=Cc1ccccc1/C=N/NC(=O)c1ccc2c(c1)OCCCO2 | 25 µg/mL (≈ 77.1 µM) | 25 µg/mL (≈ 77.1 µM) | 25 µg/mL (≈ 77.1 µM) | 50 µg/mL (≈ 154 µM) |  | 
9 | CN(C)c1ccc(/C=N/NC(=O)c2ccc3c(c2)OCCCO3)c(O)c1 | 12.5 µg/mL (≈ 35.2 µM) | 12.5 µg/mL (≈ 35.2 µM) | 25 µg/mL (≈ 70.3 µM) | 50 µg/mL (≈ 141 µM) | 6.7 µM | 203 µM
10 | COc1cc(/C=N/NC(=O)c2ccc3c(c2)OCCCO3)cc(OC)c1O | 3.13 µg/mL (≈ 8.41 µM) | 6.25 µg/mL (≈ 16.8 µM) | 6.25 µg/mL (≈ 16.8 µM) | 3.13 µg/mL (≈ 8.41 µM) | 3.9 µM | 147 µM
11 | O=C(N/N=C/c1cccs1)c1ccc2c(c1)OCCCO2 | > 100 µg/mL | > 100 µg/mL | > 100 µg/mL | > 100 µg/mL |  | 
12 | O=C(N/N=C/c1ccc(Cl)cc1Cl)c1ccc2c(c1)OCCCO2 | 6.25 µg/mL (≈ 17.1 µM) | 6.25 µg/mL (≈ 17.1 µM) | 6.25 µg/mL (≈ 17.1 µM) | 12.5 µg/mL (≈ 34.2 µM) | 4.3 µM | 198 µM
13 | O=C(N/N=C/c1cccc2ccccc12)c1ccc2c(c1)OCCCO2 | 3.13 µg/mL (≈ 9.04 µM) | 6.25 µg/mL (≈ 18 µM) | 6.25 µg/mL (≈ 18 µM) | 6.25 µg/mL (≈ 18 µM) | 5.2 µM | 130 µM
14 | Cc1ccccc1/C=N/NC(=O)c1ccc2c(c1)OCCCO2 | > 100 µg/mL | 50 µg/mL (≈ 161 µM) | > 100 µg/mL | > 100 µg/mL |  | 
15 | O=C(N/N=C/c1ccc(O)cc1)c1ccc2c(c1)OCCCO2 | 50 µg/mL (≈ 160 µM) | 25 µg/mL (≈ 80 µM) | 12.5 µg/mL (≈ 40 µM) | 25 µg/mL (≈ 80 µM) | 38.7 µM | 178 µM
16 | Cc1cccc(/C=N/NC(=O)c2ccc3c(c2)OCCCO3)c1 | 50 µg/mL (≈ 161 µM) | 25 µg/mL (≈ 80.6 µM) | > 100 µg/mL | 50 µg/mL (≈ 161 µM) |  | 
17 | O=C(N/N=C/C=C/c1ccccc1)c1ccc2c(c1)OCCCO2 | 50 µg/mL (≈ 155 µM) | 25 µg/mL (≈ 77.6 µM) | > 100 µg/mL | 50 µg/mL (≈ 155 µM) |  | 
18 | O=C(N/N=C/c1ccc(O)c(O)c1)c1ccc2c(c1)OCCCO2 | 12.5 µg/mL (≈ 38.1 µM) | 12.5 µg/mL (≈ 38.1 µM) | 25 µg/mL (≈ 76.1 µM) | 25 µg/mL (≈ 76.1 µM) | 7.8 µM | 102 µM

Row | Structure (SMILES) | MIC [1] | MIC [2] | MIC [3] | MIC [4] | IC50 [5] | IC50 [6]
19 | O=C(N/N=C/c1cc([N+](=O)[O-])ccc1F)c1ccc2c(c1)OCCCO2 | 6.25 µg/mL (≈ 17.4 µM) | 12.5 µg/mL (≈ 34.8 µM) | 12.5 µg/mL (≈ 34.8 µM) | 12.5 µg/mL (≈ 34.8 µM) | 9.5 µM | 168 µM
20 | COc1ccc(/C=N/NC(=O)c2ccc3c(c2)OCCCO3)cc1OC | 3.13 µg/mL (≈ 8.78 µM) | 3.13 µg/mL (≈ 8.78 µM) | 6.25 µg/mL (≈ 17.5 µM) | 3.13 µg/mL (≈ 8.78 µM) | 4.1 µM | 126 µM
21 | O=C(N/N=C/c1ccccc1)c1ccc2c(c1)OCCCO2 | 50 µg/mL (≈ 169 µM) | 50 µg/mL (≈ 169 µM) | > 100 µg/mL | > 100 µg/mL |  | 
22 | O=C(N/N=C/c1cc(Cl)ccc1O)c1ccc2c(c1)OCCCO2 | 12.5 µg/mL (≈ 36 µM) | 25 µg/mL (≈ 72.1 µM) | 50 µg/mL (≈ 144 µM) | 25 µg/mL (≈ 72.1 µM) | 13.2 µM | 111 µM
23 | O=C(N/N=C/c1cc(Cl)cc(Cl)c1O)c1ccc2c(c1)OCCCO2 | 12.5 µg/mL (≈ 32.8 µM) | 6.25 µg/mL (≈ 16.4 µM) | 12.5 µg/mL (≈ 32.8 µM) | 6.25 µg/mL (≈ 16.4 µM) | 5.4 µM | 184 µM
24 | O=C(N/N=C/c1ccccc1Br)c1ccc2c(c1)OCCCO2 | 50 µg/mL (≈ 133 µM) | 25 µg/mL (≈ 66.6 µM) | 50 µg/mL (≈ 133 µM) | 25 µg/mL (≈ 66.6 µM) |  | 
25 | O=C(N/N=C/c1ccc(F)cc1)c1ccc2c(c1)OCCCO2 | 12.5 µg/mL (≈ 39.8 µM) | 25 µg/mL (≈ 79.5 µM) | 25 µg/mL (≈ 79.5 µM) | 50 µg/mL (≈ 159 µM) | 32.5 µM | 126 µM
26 | Cc1ccc(/C=N/NC(=O)c2ccc3c(c2)OCCCO3)cc1 | 50 µg/mL (≈ 161 µM) | 50 µg/mL (≈ 161 µM) | > 100 µg/mL | 50 µg/mL (≈ 161 µM) |  | 
27 | O=C(N/N=C/c1ccc(Cl)c([N+](=O)[O-])c1)c1ccc2c(c1)OCCCO2 | 3.13 µg/mL (≈ 8.33 µM) | 6.25 µg/mL (≈ 16.6 µM) | 6.25 µg/mL (≈ 16.6 µM) | 3.13 µg/mL (≈ 8.33 µM) | 4.4 µM | 147 µM
28 | C(=N\C1CCCCC1)/c1ccc2c(c1)OCCCO2 |  |  |  |  | 1.6 µM | 
29 | COc1cc(/C=N/NC(=O)c2ccc3c(c2)OCCCO3)cc(OC)c1OC | 1.56 µg/mL (≈ 4.04 µM) | 3.13 µg/mL (≈ 8.1 µM) | 3.13 µg/mL (≈ 8.1 µM) | 1.56 µg/mL (≈ 4.04 µM) | 2 µM | 120 µM
30 | Cc1ccc(/C=N/NC(=O)c2ccc3c(c2)OCCCO3)o1 | > 100 µg/mL | > 100 µg/mL | > 100 µg/mL | > 100 µg/mL |  | 
31 | O=C(N/N=C/c1c(F)cccc1Cl)c1ccc2c(c1)OCCCO2 | 12.5 µg/mL (≈ 35.8 µM) | 25 µg/mL (≈ 71.7 µM) | 25 µg/mL (≈ 71.7 µM) | 50 µg/mL (≈ 143 µM) | 20.6 µM | 164 µM
32 | O=C(N/N=C/c1ccc2ccccc2c1)c1ccc2c(c1)OCCCO2 | 6.25 µg/mL (≈ 18 µM) | 3.13 µg/mL (≈ 9.04 µM) | 6.25 µg/mL (≈ 18 µM) | 3.13 µg/mL (≈ 9.04 µM) | 4.6 µM | 114 µM
33 | O=C(N/N=C/c1ccccc1O)c1ccc2c(c1)OCCCO2 | 50 µg/mL (≈ 160 µM) | 50 µg/mL (≈ 160 µM) | 25 µg/mL (≈ 80 µM) | 12.5 µg/mL (≈ 40 µM) |  | 
34 | O=C(N/N=C/c1ccc(-c2ccccc2)cc1)c1ccc2c(c1)OCCCO2 | 3.13 µg/mL (≈ 8.4 µM) | 6.25 µg/mL (≈ 16.8 µM) | 12.5 µg/mL (≈ 33.6 µM) | 6.25 µg/mL (≈ 16.8 µM) | 4.7 µM | 146 µM
35 | NC[C@H]1O[C@H](O[C@H]2[C@H](O)[C@@H](O[C@H]3O[C@H](CO)[C@@H](O)[C@H](N)[C@H]3O)[C@H](N)C[C@@H]2N)[C@H](N)[C@@H](O)[C@@H]1O [BEKANAMYCIN] | 3.13 µg/mL (≈ 6.47 µM) | 3.13 µg/mL (≈ 6.47 µM) | 1.56 µg/mL (≈ 3.23 µM) | 1.56 µg/mL (≈ 3.23 µM) | 5.6 µM | 
